How the values were obtained:
CCR-5 [1] = molecular target: T1, CCR-5 (Homo sapiens, UniProt P51681); assay: CCR-5 chemotaxis, MIP-1β-induced, peripheral T cells; format: cell-based
T1 construct: human peripheral T cells was used as a source of CCR-5; endogenous in cells; host or cells: human peripheral T cells from donors pre-screened for high CCR-5 expression
From the text: (§1) Therefore, blood donors were pre-screened for high T-cell expression of CCR-5. hPBMCs were first isolated from human whole blood by standard protocol with Ficoll-Hypaque. Flow cytometric analysis was then used to measure CCR-5 expression on T cells following staining with anti-CCR-5 antibody plus anti-CD4 antibody or anti-CD8 antibody. Those blood donors in which >5% peripheral T cells (CD4^+ and CD8^+) express CCR-5 were requested to provide blood again for isolation of PBMCs and, subsequently, of T cells using a standard E-rosetting technique which relies on the unique ability of T cells to bind to sheep red blood cells (RBCs).
A similar procedure to that set forth above was adopted except that isolated peripheral T cells was used as CCR-5-expressing cells and MIP-1β (50 nM, PeproTech Inc.) was the ligand.

[2] = Parallel Artificial Membrane Permeability Assay (PAMPA); format: in vitro ADME; details: pH 7.4
From the text: The Parallel Artificial Membrane Permeability Assay (PAMPA) consists of a specially formulated lecithin-based lipid combination referred to as the gastrointestinal tract (GIT) lipid. The GIT lipid is used to form a membrane in a sandwich plate assembly similar to that used in the Caco-2 assays. The GIT lipid closely resembles in vivo membrane composition and performance as measured by standard compounds that are known to be passively absorbed in humans. […] The rate of passage of compounds through the PAMPA membrane is used to determine a permeability coefficient (Pc), which can be related to the in vivo passive permeability of the compound.
The permeability coefficient (Pc) of a particular compound is examined in a pH-dependent setting with apical and basolateral pH of 7.4. All experiments are conducted in triplicate determinations.
The PAMPA assay plate (donor side and acceptor side) was combined and allowed to incubate at room temperature for 4 hours. […] The donor, acceptor, reference, and blank plates were read in the SPECTRAMAX® UV plate reader. Data was captured by the pION software, which analyzes the spectra and generates Pc values.

CCR-2 [3] = molecular target: T2, CCR-2 (Homo sapiens, UniProt P41597); assay: CCR-2 whole blood integrin (CD11b) upregulation; format: cell-based
T2 sequence (P41597 whole entry): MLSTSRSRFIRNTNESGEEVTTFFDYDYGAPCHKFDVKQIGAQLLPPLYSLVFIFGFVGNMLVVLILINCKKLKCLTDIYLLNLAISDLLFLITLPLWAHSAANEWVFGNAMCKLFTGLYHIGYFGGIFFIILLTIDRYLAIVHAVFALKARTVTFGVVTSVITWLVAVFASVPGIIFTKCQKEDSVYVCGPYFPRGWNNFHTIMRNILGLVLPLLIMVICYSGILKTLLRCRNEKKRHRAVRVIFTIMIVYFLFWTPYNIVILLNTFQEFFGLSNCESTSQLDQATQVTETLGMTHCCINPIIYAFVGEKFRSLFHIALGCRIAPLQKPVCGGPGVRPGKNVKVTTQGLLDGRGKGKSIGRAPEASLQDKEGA
Method: A CCR-2-dependent CD11b upregulation assay was established with human whole blood. Whole blood (100 μl) was pre-incubated with a concentration range of Example 1 at 37° C. for 10 minutes. […] The reactions were incubated for 30 minutes at 37° C. […] The samples were then incubated for 30 minutes on ice in the dark. […] Data acquisition and analysis were performed using CellQuestPro software. A sequential gating strategy was used to analyze the CD14^high CD11b^+ monocyte population.

CCR-5 [4] = molecular target: T1, CCR-5; assay: CCR-5 GTP-γS exchange, CCR-5/HT1080 membranes; format: biochemical; details: MIP-1α/LD78β ligand
From the text: A similar procedure to the CCR-2 GTP-γS exchange procedure set forth above was adopted except that MIP-1α/LD78β was the ligand and the cell line was CCR-5/HT1080. MIP-1α/LD78β was used as the CCR-5 ligand because it provided a bigger signal to noise ratio than MIP-1β.

CCR-2 [5] = molecular target: T2, CCR-2; assay: CCR-2 GTP-γS exchange, HT1080 membranes; format: biochemical; details: 1 nM MCP-1
Method: Each reaction (200 μL) contained 20 mM Na-HEPES, 10 mM MgCl2, 50 mM NaCl, 0.1% BSA (Sigma), 1% DMSO, and 10 μM GDP (pH 7.4). […] Reactions were incubated for 90 minutes hour at room temperature and [^35S]-GTPγS/Gαi complexes were collected on a Millipore MAFC 96 well filter plate. […] Data were analyzed using the ligand binding software from Graphpad Prism 4.

[6] = test system: monocyte/macrophage infiltration; assay: 48-hour thioglycollate (TG)-induced peritonitis model in hCCR-2 KI mouse; format: in vivo; details: for % inhibition of monocyte/macrophage infiltration: 48 h post TG
Method: The hCCR-2 KI mice (C57BL/6-SVJ129) were injected intraperitoneally with 1 ml of thioglycollate (TG) (Hardy Diagnostics). For each study, eight male mice per group were used. Example 1 was dosed orally 1 hour prior to TG injection. The vehicle used was 0.01 N HCl in water. Forty-eight hours post TG injection, peritoneal lavages were performed by injecting 5 ml PBS/10 mM EDTA/10% BSA into the peritoneal cavity.
For the 48-hour TG peritonitis study, Example 1 was dosed twice a day with the first dose one hour prior to TG injection. Total peritoneal cell counts were obtained on isolated cells by a cell counter. Cytospins were performed to determine differential leukocyte counts. The cells were stained for 3 minutes with Wright-Giemsa Stain (Sigma-Aldrich) and then rinsed with deionized water for 5 minutes. Differential counts were calculated based on a total of 200 cells counted per sample. Blood was also collected from the retro-orbital sinus at the end of each study in EDTA for determination of drug concentration.
For flow cytometric analysis, peritoneal exudate cells (1×10^6) were washed once with FACS buffer (PBS/0.5% BSA) and resuspended in FACS buffer. Cells were incubated with an Fc-blocking antibody (BD Pharmingen) on ice for 15 min followed by addition of the following antibodies (BD Pharmingen): PE conjugated anti-F4/80, FITC conjugated anti-Ly6C, and Alexa 647 conjugated anti-hCCR-2. After 45 min on ice, cells were fixed by BD CYTOFIX® for 15 min on ice, washed twice with FACS buffer, and resuspended in 200 μl FACS buffer. Cellular events (40,000) were acquired for each sample and data were analyzed using FloJo software (TreeStar). A FSC/SSC gate was set to include all monocytes (low SSC, higher FSC) while excluding granulocytes from the analysis. This gated population was then analyzed for Ly6C (FITC), F4/80 (PE) expression. Peritoneal monocytes/macrophage numbers were determined by multiplying total peritoneal cell counts obtained by the cell counter and the percentage of monocytes/macrophages identified by F4/80^+ cells from flow cytometry. Statistical significance of differences between means was analyzed using the paired two-tailed t test with significance set at p values below 0.05.
Example 1 was evaluated in the hCCR-2 KI mouse TG peritonitis model to determine its EC50 in inhibiting monocyte/macrophage infiltration. Mice were administered thioglycollate, and dosed orally with Example 1 at 10, 50, or 160 mg/kg BID. Forty eight hours post TG treatment, peritoneal lavage was obtained for cellular infiltrate analysis by flow cytometry.

CCR-5 [7] = molecular target: T1, CCR-5; assay: T cell CCR-5 binding assay, 125I-MIP-1β tracer; details: human peripheral T cells
From the text: The procedure used for T cell CCR-5 binding assay was similar to those for hPBMC CCR-2 binding assay except that human peripheral T cells was used as a source of CCR-5 (see below) and ^125I-MIP-1β as a tracer (Amersham).
as §1

hERG = molecular target: T3, hERG (Homo sapiens, UniProt Q12809); assay: hERG patch clamp; format: cell-based; details: read-out: hERG patch clamp (% Inhib.)
T3 construct: expressed in transfected cells; host or cells: HEK293
T3 sequence (Q12809 whole entry): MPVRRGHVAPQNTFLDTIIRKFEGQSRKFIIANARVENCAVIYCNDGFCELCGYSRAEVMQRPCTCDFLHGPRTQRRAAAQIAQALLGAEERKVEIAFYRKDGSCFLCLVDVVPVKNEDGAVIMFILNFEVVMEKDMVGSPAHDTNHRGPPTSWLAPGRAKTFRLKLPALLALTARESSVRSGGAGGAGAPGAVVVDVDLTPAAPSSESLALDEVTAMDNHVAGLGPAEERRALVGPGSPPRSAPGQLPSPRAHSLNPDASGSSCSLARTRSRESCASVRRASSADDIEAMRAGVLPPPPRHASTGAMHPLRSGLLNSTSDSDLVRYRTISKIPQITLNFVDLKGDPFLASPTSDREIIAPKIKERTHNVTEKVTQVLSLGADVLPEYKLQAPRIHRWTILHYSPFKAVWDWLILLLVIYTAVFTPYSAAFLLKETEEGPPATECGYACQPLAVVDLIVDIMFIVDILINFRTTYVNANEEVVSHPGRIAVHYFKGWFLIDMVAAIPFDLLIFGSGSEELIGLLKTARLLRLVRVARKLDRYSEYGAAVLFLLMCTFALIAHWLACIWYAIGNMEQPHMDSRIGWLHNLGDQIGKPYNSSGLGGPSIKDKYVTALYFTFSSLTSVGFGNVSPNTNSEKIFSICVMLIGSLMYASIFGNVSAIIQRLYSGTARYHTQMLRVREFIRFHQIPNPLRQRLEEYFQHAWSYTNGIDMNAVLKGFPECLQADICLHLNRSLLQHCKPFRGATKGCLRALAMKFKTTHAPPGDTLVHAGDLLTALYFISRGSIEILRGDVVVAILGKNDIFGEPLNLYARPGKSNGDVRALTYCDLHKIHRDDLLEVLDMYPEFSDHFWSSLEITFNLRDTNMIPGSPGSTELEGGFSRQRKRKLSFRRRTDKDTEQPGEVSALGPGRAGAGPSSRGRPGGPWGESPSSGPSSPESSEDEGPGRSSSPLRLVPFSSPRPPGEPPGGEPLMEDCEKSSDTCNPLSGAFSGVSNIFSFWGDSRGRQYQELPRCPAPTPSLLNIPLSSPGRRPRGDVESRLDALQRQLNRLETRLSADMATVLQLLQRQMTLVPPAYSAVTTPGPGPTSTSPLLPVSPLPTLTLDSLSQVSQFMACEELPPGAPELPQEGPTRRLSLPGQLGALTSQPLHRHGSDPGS
Method: Whole-cell patch-clamp was used to directly measure hERG currents in HEK-293 cells stably expressing the cloned hERG potassium channel α subunit. […] Repetitive test pulses (0.05 Hz) were applied from a holding potential of −80 mV to +20 mV for 2 seconds and tail currents were elicited following the test pulses by stepping the voltage to −65 mV. The effects from the compound were calculated by measuring inhibition of peak tail current

T1 sequence (P51681 whole entry): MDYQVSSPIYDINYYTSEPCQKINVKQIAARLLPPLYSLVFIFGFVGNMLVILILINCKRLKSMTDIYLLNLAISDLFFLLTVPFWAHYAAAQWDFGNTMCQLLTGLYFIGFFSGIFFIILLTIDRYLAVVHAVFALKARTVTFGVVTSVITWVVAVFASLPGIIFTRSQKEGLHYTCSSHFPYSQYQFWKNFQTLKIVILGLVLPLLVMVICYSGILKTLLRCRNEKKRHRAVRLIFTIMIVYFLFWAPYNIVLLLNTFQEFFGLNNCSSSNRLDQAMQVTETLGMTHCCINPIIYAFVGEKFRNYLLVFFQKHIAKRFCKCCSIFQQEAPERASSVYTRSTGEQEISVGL

With CC(=O)N[C@@H]1C[C@H](NC(C)(C)C)CC[C@@H]1N1CC[C@H](Nc2ncnc3cc(C(C)(C)C)nn23)C1=O [Example 1, N-((1R,2 S,5R)-5-(tert-Butylamino)-2-((S)-3-(7-tert-butylpyrazolo[1,5-a][1,3,5]triazin-4-ylamino)-2-oxopyrrolidin-1-yl)cyclohexyl)acetamide] the IC50 (CCR-5 [1]) was 1.1 ± 0.6 nM, the Papp at 4 h, 100 µM [2] was 33.6 ×10⁻⁶ cm/s and the “activity against CCR-2 versus CCR-5 (Table 5)” value (CCR-2 [3]; comparison of CCR-2 and CCR-5 CD11b IC50) was “equipotent against CCR-2 and CCR-5”. It also gave an IC50 (CCR-2 [3]; human whole blood, MCP-1 10 nM) of 4.8 nM, an IC50 (CCR-5 [4]) of 6.1 ± 1.2 nM and an IC50 (CCR-2 [5]) of 3.5 ± 1.9 nM. The “% inhibition of monocyte/macrophage infiltration” value ([6]; 10 mg/kg oral BID) was 25%, the “% inhibition of monocyte/macrophage infiltration” value ([6]; 50 mg/kg oral BID) was 54% and the “% inhibition of monocyte/macrophage infiltration” value ([6]; 160 mg/kg oral BID) was 63%. For the same compound, the “% inhibition of monocyte/macrophage infiltration” value ([6]; 200 mg/kg (different study), oral BID) was 71%, the EC50 ([6]; Mus musculus, estimated from four separate studies, hCCR-2 KI mouse, read-out: average EC50 for inhibition of monocyte/macrophage infiltration) was 4.9 nM and the “maximal inhibition of monocyte/macrophage infiltration reached” value ([6]; four separate studies with multiple doses) was roughly 70%. It also gave an IC50 (CCR-5 [7]) of 3.6 ± 1.8 nM, an inhibition at 10000 nM (hERG; pH 7.4, 10,000 nM) of 1.2% and an inhibition at 30000 nM (hERG; pH 7.4, 30,000 nM) of 9.2%.

Reference: patent US8618101B2, “N-((1R,2S,5R)-5-(tert-butylamino)-2-((S)-3-(7-tert-butylpyrazolo[1,5-a][1,3,5]triazin-4-ylamino)-2-oxopyrrolidin-1-yl)cyclohexyl)acetamide, a dual modulator of chemokine receptor activity, crystalline forms and processes” (Bristol-Myers Squibb Company, priority 2009, dated 2013)
